Measured values: ChEMBL document CHEMBL1158545, “3'-(1,2,3-Triazol-1-yl)-3'-deoxythymidine analogs as substrates for human and Ureaplasma parvum thymidine kinase for structure-activity investigations” (Bioorg Med Chem, 2010)

B1: Thymidine kinase, cytosolic (Homo sapiens), P04183 (protein)
chain: MSCINLPTVLPGSPSKTRGQIQVILGPMFSGKSTELMRRVRRFQIAQYKCLVIKYAKDTRYSSSFCTHDRNTMEALPACLLRDVAQEALGVAVIGIDEGQFFPDIVEFCEAMANAGKTVIVAALDGTFQRKPFGAILNLVPLAESVVKLTAVCMECFREAAYTKRLGTEKEVEVIGGADKYHSVCRLCYFKKASGQPAGPDNKENCPVPGKPGEAVAARKLFAPQQILQCSPAN
B2: Thymidine kinase (Ureaplasma parvum serovar 3 (strain ATCC 700970)), Q9PPP5 (protein)
chain: MAKVNAFSKKIGWIELITGPMFAGKTAELIRRLHRLEYADVKYLVFKPKIDTRSIRNIQSRTGTSLPSVEVESAPEILNYIMSNSFNDETKVIGIDEVQFFDDRICEVANILAENGFVVIISGLDKNFKGEPFGPIAKLFTYADKITKLTAICNECGAEATHSLRKIDGKHADYNDDIVKIGCQEFYSAVCRHHHKVPNRPYLNSNSEEFIKFFKNKKRNKNI

What was measured:
[1] = target: T1, Thymidine kinase, cytosolic (Homo sapiens) (UniProt P04183); test: Activity of human TK1 relative to ATP; design: concentration or dose not given beside the values
T1 sequence (whole entry): B1 chain

Thymidine kinase = target: T2, Thymidine kinase (Ureaplasma parvum serovar 3 (strain ATCC 700970), UniProt Q9PPP5); test: Inhibition of Ureaplasma parvum thymidine kinase by liquid scintillation counting
T2 sequence (Q9PPP5 whole entry): B2 chain

[2] = target: T3, Thymidine kinase, cytosolic (Homo sapiens, UniProt P04183); test: Inhibition of human TK1 by liquid scintillation counting
T3 sequence (P04183 whole entry): B1 chain

[3] = target: T4, Thymidine kinase (Ureaplasma parvum serovar 3 (strain ATCC 700970)) (UniProt Q9PPP5); test: Activity of Ureaplasma parvum thymidine kinase relative to dThd
T4 sequence (whole entry): B2 chain

[4] = target: T4, Thymidine kinase (Ureaplasma parvum serovar 3 (strain ATCC 700970)); test: Ratio of Vmax to Km for Ureaplasma parvum thymidine kinase relative to dThd
[5] = target: T1, Thymidine kinase, cytosolic (Homo sapiens); test: Ratio of Vmax to Km for human TK1 relative to […]
[6] = substrate: Cc1cn([C@H]2C[C@H](n3cc(-c4ccccc4)nn3)[C@@H](CO)O2)c(=O)[nH]c1=O; conditions: Homo sapiens
[7] = substrate: Cc1cn([C@H]2C[C@H](n3cc(CCc4ccccc4)nn3)[C@@H](CO)O2)c(=O)[nH]c1=O; conditions: Homo sapiens
[8] = substrate: Cc1cn([C@H]2C[C@H](n3cc(-c4ccccn4)nn3)[C@@H](CO)O2)c(=O)[nH]c1=O; conditions: Homo sapiens
[9] = substrate: CCCc1cn([C@H]2C[C@H](n3cc(C)c(=O)[nH]c3=O)O[C@@H]2CO)nn1; conditions: Homo sapiens
[10] = substrate: Cc1cn([C@H]2C[C@H](n3cc(Cc4ccccc4)nn3)[C@@H](CO)O2)c(=O)[nH]c1=O; conditions: Homo sapiens
[11] = substrate: Cc1cn([C@H]2C[C@H](N=[N+]=[N-])[C@@H](CO)O2)c(=O)[nH]c1=O; conditions: Homo sapiens
[12] = substrate: CCCCCc1cn([C@H]2C[C@H](n3cc(C)c(=O)[nH]c3=O)O[C@@H]2CO)nn1; conditions: Homo sapiens
[13] = substrate: CC(=O)OCc1cn([C@H]2C[C@H](n3cc(C)c(=O)[nH]c3=O)O[C@@H]2CO)nn1; conditions: Homo sapiens
[14] = substrate: Cc1cn([C@H]2C[C@H](n3cc(C(C)(C)C)nn3)[C@@H](CO)O2)c(=O)[nH]c1=O; conditions: Homo sapiens
[15] = substrate: Cc1cn([C@H]2C[C@H](n3cc(-c4ccccc4)nn3)[C@@H](CO)O2)c(=O)[nH]c1=O; conditions: Ureaplasma parvum
[16] = substrate: Cc1cn([C@H]2C[C@H](n3cc(CCc4ccccc4)nn3)[C@@H](CO)O2)c(=O)[nH]c1=O; conditions: Ureaplasma parvum
[17] = substrate: Cc1cn([C@H]2C[C@H](n3cc(-c4ccccn4)nn3)[C@@H](CO)O2)c(=O)[nH]c1=O; conditions: Ureaplasma parvum
[18] = substrate: CCCc1cn([C@H]2C[C@H](n3cc(C)c(=O)[nH]c3=O)O[C@@H]2CO)nn1; conditions: Ureaplasma parvum
[19] = substrate: Cc1cn([C@H]2C[C@H](n3cc(Cc4ccccc4)nn3)[C@@H](CO)O2)c(=O)[nH]c1=O; conditions: Ureaplasma parvum
[20] = substrate: Cc1cn([C@H]2C[C@H](N=[N+]=[N-])[C@@H](CO)O2)c(=O)[nH]c1=O; conditions: Ureaplasma parvum
[21] = substrate: CCCCCc1cn([C@H]2C[C@H](n3cc(C)c(=O)[nH]c3=O)O[C@@H]2CO)nn1; conditions: Ureaplasma parvum
[22] = substrate: CC(=O)OCc1cn([C@H]2C[C@H](n3cc(C)c(=O)[nH]c3=O)O[C@@H]2CO)nn1; conditions: Ureaplasma parvum
[23] = substrate: Cc1cn([C@H]2C[C@H](n3cc(C(C)(C)C)nn3)[C@@H](CO)O2)c(=O)[nH]c1=O; conditions: Ureaplasma parvum

| Molecule | Activity [1] [%] | IC50 [2] [µM] | Activity [3] [%] | Activity [4] [%] | Activity [5] [%] | other results |
| --- | --- | --- | --- | --- | --- | --- |
| Cc1cn([C@H]2C[C@H](n3cc(Cc4ccccc4)nn3)[C@@H](CO)O2)c(=O)[nH]c1=O | 4.8 | 78 | 11.6 | 0.8 | 0.1 | IC50 (Thymidine kinase): 73 µM |
| Cc1cn([C@H]2C[C@H](N=[N+]=[N-])[C@@H](CO)O2)c(=O)[nH]c1=O | 47.3 | – | 27.8 | 43 | 50 | – |
| Cc1cn([C@H]2C[C@H](n3cc(-c4ccccn4)nn3)[C@@H](CO)O2)c(=O)[nH]c1=O | 3.1 | 53 | 7.1 | 1.1 | 0.5 | – |
| CCCCCc1cn([C@H]2C[C@H](n3cc(C)c(=O)[nH]c3=O)O[C@@H]2CO)nn1 | 1.9 | – | 7.2 | 1.6 | 0.3 | – |
| Cc1cn([C@H]2C[C@H](n3cc(-c4ccccc4)nn3)[C@@H](CO)O2)c(=O)[nH]c1=O | 2.1 | 99 | 5.5 | 0.7 | 0.2 | – |
| Cc1cn([C@H]2C[C@H](n3cc(C(C)(C)C)nn3)[C@@H](CO)O2)c(=O)[nH]c1=O | 2.2 | – | 4.7 | 0.15 | 0.07 | – |
| COCc1cn([C@H]2C[C@H](n3cc(C)c(=O)[nH]c3=O)O[C@@H]2CO)nn1 | 1.3 | – | 1.6 | – | – | – |
| Cc1cn([C@H]2C[C@H](n3cc(CCO)nn3)[C@@H](CO)O2)c(=O)[nH]c1=O | 2.2 | – | 4.1 | – | – | – |
| Cc1cn([C@H]2C[C@H](n3cc(CCc4ccccc4)nn3)[C@@H](CO)O2)c(=O)[nH]c1=O | 2.4 | 60 | 12.3 | 0.8 | 0.08 | – |
| CCCc1cn([C@H]2C[C@H](n3cc(C)c(=O)[nH]c3=O)O[C@@H]2CO)nn1 | 2.7 | – | 6.5 | 0.5 | 0.1 | – |
| CC(=O)OCc1cn([C@H]2C[C@H](n3cc(C)c(=O)[nH]c3=O)O[C@@H]2CO)nn1 | 2.4 | – | 3.9 | 0.6 | 0.1 | – |
| Cc1cn([C@H]2C[C@H](n3cc(-c4ccc(F)cc4)nn3)[C@@H](CO)O2)c(=O)[nH]c1=O | 2.6 | 44 | 13.7 | – | 1.1 | IC50 (Thymidine kinase): 71 µM |
| B1 | – | – | – | – | – | Km [6]: 57 µM; Km [7]: 204 µM; Km [8]: 33 µM; Km [9]: 138 µM; Km [10]: 174 µM; Km [11]: 3.5 µM; Km [12]: 75 µM; Km [13]: 114 µM; Km [14]: 243 µM |
| B2 | – | – | – | – | – | Km [15]: 40 µM; Km [16]: 104 µM; Km [17]: 30 µM; Km [18]: 122 µM; Km [19]: 85 µM; Km [20]: 2.7 µM; Km [21]: 32 µM; Km [22]: 78 µM; Km [23]: 259 µM |
